Data: ChEMBL document CHEMBL1201862, “PubChem BioAssay data set” (2004)
Activity calls are given as the source filed them. Rule as the data show it, for most assays here: actives have a measured IC50 and inactives only a lower limit.

Experiments:
Caspase-3 = biological target: T1, Caspase-3 (Homo sapiens, UniProt P42574); assay: SAR Analysis of small molecule inhibitors of Sentrin-specific proteases (SENPs) using a Caspase-3 Selectivity assay. [Related pubchem assays (depositor defined):AID2540, AID2599, AID434973, AID489001]; format: functional
T1 sequence (P42574 whole entry): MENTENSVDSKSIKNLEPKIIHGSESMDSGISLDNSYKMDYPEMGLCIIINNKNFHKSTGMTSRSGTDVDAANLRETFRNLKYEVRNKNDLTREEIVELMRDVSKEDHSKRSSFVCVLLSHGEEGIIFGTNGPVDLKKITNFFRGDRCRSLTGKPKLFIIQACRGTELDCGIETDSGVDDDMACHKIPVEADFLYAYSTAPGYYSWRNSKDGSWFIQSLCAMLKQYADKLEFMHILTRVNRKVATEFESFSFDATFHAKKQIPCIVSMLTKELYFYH

[1] = biological target: T2, Sentrin-specific protease 7 (Homo sapiens, UniProt Q9BQF6); format: functional;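 also: Luminescence-based dose-response confirmation of ultra-high-throughput screening hits, measuring inhibition of SENP7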
T2 sequence (Q9BQF6 whole entry): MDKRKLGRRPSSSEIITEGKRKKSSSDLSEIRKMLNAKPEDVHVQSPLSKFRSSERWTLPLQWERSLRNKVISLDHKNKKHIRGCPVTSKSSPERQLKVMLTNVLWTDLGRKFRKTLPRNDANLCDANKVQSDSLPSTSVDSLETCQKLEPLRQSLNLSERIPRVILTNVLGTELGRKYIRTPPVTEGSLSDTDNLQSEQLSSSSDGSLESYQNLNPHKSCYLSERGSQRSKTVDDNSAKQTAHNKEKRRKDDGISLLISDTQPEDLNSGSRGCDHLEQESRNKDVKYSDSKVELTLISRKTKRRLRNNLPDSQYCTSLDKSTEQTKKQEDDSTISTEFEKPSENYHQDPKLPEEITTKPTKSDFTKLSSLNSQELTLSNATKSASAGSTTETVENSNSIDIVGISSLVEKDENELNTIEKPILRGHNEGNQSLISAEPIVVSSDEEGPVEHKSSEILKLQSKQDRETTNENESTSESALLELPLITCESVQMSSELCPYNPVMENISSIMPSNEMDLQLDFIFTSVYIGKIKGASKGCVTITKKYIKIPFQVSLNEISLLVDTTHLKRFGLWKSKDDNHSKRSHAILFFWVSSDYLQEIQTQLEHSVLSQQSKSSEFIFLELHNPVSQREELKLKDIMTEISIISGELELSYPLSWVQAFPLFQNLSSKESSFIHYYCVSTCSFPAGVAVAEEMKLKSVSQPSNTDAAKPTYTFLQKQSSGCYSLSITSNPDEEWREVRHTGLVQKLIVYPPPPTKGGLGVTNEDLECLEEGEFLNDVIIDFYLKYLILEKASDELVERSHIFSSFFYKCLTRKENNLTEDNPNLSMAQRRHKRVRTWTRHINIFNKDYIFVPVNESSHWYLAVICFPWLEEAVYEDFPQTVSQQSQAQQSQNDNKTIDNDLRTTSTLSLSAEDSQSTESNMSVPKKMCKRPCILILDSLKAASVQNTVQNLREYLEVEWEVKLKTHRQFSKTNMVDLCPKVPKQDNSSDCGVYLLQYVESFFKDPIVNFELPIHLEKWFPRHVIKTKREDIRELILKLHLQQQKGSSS

[2] = biological target: T3, Sentrin-specific protease 6 (Homo sapiens, UniProt Q9GZR1); format: functional
T3 sequence (Q9GZR1 whole entry): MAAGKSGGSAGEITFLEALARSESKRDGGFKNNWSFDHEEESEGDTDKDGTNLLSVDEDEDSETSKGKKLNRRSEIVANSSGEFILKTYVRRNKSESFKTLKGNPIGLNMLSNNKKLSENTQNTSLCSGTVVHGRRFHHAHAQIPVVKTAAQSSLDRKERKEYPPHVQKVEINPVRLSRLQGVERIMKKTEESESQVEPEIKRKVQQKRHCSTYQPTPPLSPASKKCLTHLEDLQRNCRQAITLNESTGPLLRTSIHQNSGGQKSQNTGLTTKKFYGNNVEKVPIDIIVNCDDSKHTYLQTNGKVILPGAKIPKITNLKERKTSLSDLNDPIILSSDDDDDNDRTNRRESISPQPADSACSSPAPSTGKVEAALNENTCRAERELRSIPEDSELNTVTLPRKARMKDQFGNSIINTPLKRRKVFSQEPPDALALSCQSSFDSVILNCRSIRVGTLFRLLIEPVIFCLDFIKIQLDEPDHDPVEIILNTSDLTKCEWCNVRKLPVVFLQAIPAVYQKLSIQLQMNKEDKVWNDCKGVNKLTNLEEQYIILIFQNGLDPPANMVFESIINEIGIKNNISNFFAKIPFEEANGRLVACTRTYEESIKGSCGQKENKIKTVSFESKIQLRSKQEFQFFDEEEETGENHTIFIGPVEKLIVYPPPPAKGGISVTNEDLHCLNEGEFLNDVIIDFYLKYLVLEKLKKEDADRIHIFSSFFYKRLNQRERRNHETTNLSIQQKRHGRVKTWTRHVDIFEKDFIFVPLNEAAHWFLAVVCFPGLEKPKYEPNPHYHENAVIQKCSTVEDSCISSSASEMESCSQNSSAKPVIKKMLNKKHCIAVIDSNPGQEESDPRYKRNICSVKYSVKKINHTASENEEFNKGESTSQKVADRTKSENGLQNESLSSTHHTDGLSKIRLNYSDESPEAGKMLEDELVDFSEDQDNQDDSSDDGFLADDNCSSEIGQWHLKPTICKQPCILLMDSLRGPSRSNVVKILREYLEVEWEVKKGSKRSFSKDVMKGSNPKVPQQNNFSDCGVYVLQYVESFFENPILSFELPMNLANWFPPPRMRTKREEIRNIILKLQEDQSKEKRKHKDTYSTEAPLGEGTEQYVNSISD

[3] = biological target: T4, Sentrin-specific protease 8 (Homo sapiens, UniProt Q96LD8); assay: SENP8 protease inhibitors, SAR follow-up, biochemical, luminescence (AID 504501); format: functional
T4 sequence (Q96LD8 whole entry): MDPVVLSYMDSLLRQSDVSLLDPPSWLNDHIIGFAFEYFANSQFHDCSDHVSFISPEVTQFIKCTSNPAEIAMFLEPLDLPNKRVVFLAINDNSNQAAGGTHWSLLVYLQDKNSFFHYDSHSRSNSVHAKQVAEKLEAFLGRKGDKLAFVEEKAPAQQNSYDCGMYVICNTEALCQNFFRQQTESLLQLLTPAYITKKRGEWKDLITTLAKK

[4] = biological target: Luciferin 4-monooxygenase (Photinus pyralis, UniProt P08659); assay: Counter Screen for Luciferase-based Assay Positives. [Related pubchem assays: 620, 618, 411 ]
Sequence of Luciferin 4-monooxygenase (P08659 whole entry): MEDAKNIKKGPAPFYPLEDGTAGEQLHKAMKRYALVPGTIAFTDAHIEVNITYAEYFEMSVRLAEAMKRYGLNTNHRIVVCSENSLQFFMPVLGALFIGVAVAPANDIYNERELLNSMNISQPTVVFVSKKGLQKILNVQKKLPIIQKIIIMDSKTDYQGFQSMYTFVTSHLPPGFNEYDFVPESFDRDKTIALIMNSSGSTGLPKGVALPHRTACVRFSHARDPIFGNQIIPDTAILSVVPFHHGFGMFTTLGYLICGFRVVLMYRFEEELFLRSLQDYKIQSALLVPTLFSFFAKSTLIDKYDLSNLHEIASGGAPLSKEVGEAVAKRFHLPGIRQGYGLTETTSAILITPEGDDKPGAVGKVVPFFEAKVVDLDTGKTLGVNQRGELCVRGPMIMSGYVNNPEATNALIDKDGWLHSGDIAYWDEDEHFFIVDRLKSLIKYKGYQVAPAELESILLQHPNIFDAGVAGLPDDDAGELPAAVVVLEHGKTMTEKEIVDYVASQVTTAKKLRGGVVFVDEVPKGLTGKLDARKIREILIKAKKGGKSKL

HT-1080 = assay: cytotoxicity in HT1080 fibrosarcoma cells, cell-based, fluorescence readout (AID 620); format: functional; conditions: Homo sapiens
[5] = biological target: T3, Sentrin-specific protease 6; assay: SAR Analysis of small molecule inhibitors of Sentrin-specific protease 6 (SENP6) using a Luminescent assay. [Related pubchem assays (depositor defined):AID2582, AID2599]; format: functional
[6] = biological target: T4, Sentrin-specific protease 8; format: functional

SMILES: N#Cc1c(NC(=O)CSc2nc[nH]n2)sc2c1CCCCC2
- IC50 (Caspase-3): 40.4 µM (active)
- IC50 [1]: 5.65 µM (active)
- IC50 [2]: 4 µM (active)
- IC50 [3]: 12.7 µM (active)
- EC50 [4]: 50.9 µM (active)
- EC50 (HT-1080): > 50 µM (not active)
- IC50 [5]: 8.05 µM (active)
- IC50 [6]: 4.66 µM (active)

SMILES: COc1ccc(C(N)c2nccc3cc(OC)c(OC)cc23)cc1OC (stereo unspecified)
- IC50 (Caspase-3): > 99 µM (inactive)
- IC50 [3]: > 99 µM (inactive)
- IC50 [5]: > 99 µM (inactive)
